Measured values taken from patent US12091670B2, “Bacteria-based protein delivery” (Universitaet Basel, priority 2014, dated 2024).
Entries after “also recorded” stand apart in the source; their conditions may differ.

Columns and labels:
[1] = test system: 4T1 cells; format: cell-based
[2] = test system: HeLa cells; format: cell-based, human
[3] = test system: D2A1 cells; format: cell-based
[4] = test system: B16F10 cells; format: cell-based
[5] = test system: cAMP; format: cell-based, human
[6] = test system: HeLa cells; experiment: Apoptosis induction in HeLa cells by S. enterica aroA delivered murine tBid fusions (cleaved Caspase 3 p17 western blot); format: cell-based, human; details: 4 h, MOI of 100
[7] = test system: HeLa cells; experiment: Removal of YopE1-138 appendage by T3SS-delivered TEV protease, Western blot of digitonin lysed HeLa cells; format: cell-based, human; details: coinfection, 2 h
Description: HeLa cells in 6-well plates were infected at an MOI of 100 as described above. In case of coinfection with the TEV protease translocating Y. enterocolitica strain, the OD600 of the strains was set and the two bacterial suspensions were mixed in a tube at a ratio of 1:1 (if not otherwise indicated) before addition to the cells. At the end of the infection, the cells were washed twice with ice-cold PBS and collected by scraping in a small volume of ice-cold PBS. After centrifugation (16 000 rcf, 5 min, 4° C.) the pellet was dissolved in 0.002% digitonin supplemented with a protease inhibitor cocktail (Roche complete, Roche). The dissolved pellets were incubated for 5 minutes on ice and then centrifuged (16 000 rcf, 25 min, 4° C.). Supernatants were collected and analyzed for total protein content by […] (Pierce) before SDS PAGE and Western blotting using an anti-Myc (Santa Cruz, 9E1 1) or anti-Ink4C (Cell Signaling) antibody.

[8] = test system: HeLa cells; format: cell-based, human; remark: listed apart in the source
[9] = test system: p38; format: cell-based, human
[10] = test system: Akt; format: cell-based, human
[11] = test system: actin network in HeLa cells; format: cell-based, human
[12] = test system: zebrafish embryos; details: in vivo
[13] = S. enterica aroA grown under SPI-1 T3SS inducing conditions
[14] = S. enterica aroA grown under SPI-2 T3SS inducing conditions

For “BH3 domain of murine BID: YopE1-138 fusion with BH3 domain of murine tBID, codon optimized for Y. enterocolitica”, the “cell death / apoptosis induction” value [1] was “induce massive cell death; also recorded: induces massive apoptosis”, the “cell death / apoptosis induction” value [2] was “induce massive cell death; also recorded: induces massive apoptosis” and the “cell death / apoptosis induction” value [3] was “induce massive cell death; also recorded: induces massive apoptosis”. The “cell death / apoptosis induction” value [4] was “induce massive cell death; also recorded: induces massive apoptosis”.

With “BepA: YopE1-138 fusion with full length type IV effector BepA from B. henselae” the cAMP production [5] was “triggered cAMP production in expected amounts”.

“BepAE30 5-end: YopE1-138 fusion with BepA E305-end containing the C-terminal Bid domain” was tested, and the cAMP production [5] was “triggered cAMP production in expected amounts”.

For “BepG: YopE1-138 fusion with the Bid domain of the B. henselae effector BepG”, the cAMP production [5] was “failed to induce cAMP”.

In the case of “Murine tBID fused to full length SteA: murine tBID fused to full length SteA, delivered by S. enterica”, the “apoptosis induction (CASP3 p17 production)” value [6, 13] is reported as “lead to apoptosis induction in HeLa cells” and the “apoptosis induction (CASP3 p17 production)” value [6, 14] is reported as “lead to apoptosis induction in HeLa cells”.

With “TEV protease: TEV protease (S219V variant) fused to YopE1-138, delivered via T3SS” the “function of TEV protease delivered via T3SS” value [7] was “functional”.

In the case of “YopEi_i38-BID: YopE1-138 fusion with human BH3 interacting-domain death agonist (BID)”, the “apoptosis / cell death induction” value [8] is reported as “failed to induce apoptosis”.

In the case of “YopEi_i38-OspF: YopE1-138 fusion with S. flexneri type III effector OspF”, the “TNFa-induced p38 phosphorylation” value [9] is reported as “TNFa-induced phosphorylation was abolished”.

“YopEi_i38-SopB: YopE1-138 fusion with Salmonella type III effector SopB” was tested, and the “phosphorylation of Akt at T308 and S473” value [10] was “induced a strong phosphorylation of Akt at T308 and 5473”.

“YopEi_i38-SopE-Myc: YopE1-138 fusion with SopE and MycHis tag” was tested, and the “changes in the actin network / F-actin rearrangements” value [11] was “triggered massive F-actin rearrangements”.

With “YopEi_i38-SopE: YopE1-138 fusion with SopE from Salmonella enterica” the “phosphorylation of Akt at T308 and S473” value [10] was “had no effect on Akt”, the “changes in the actin network / F-actin rearrangements” value [11] was “induced dramatic changes in the actin network” and the “time of first changes in the actin cytoskeleton” value [11] was 2 min p.i.

With “YopEi_i38-SptP: YopE1-138 fusion with SptP, GTPase activating protein for Cdc42” the “effect of co-infection on YopE1-138-SopE-Myc triggered F-actin rearrangements” value [11] was “abolished this effect in a dose dependent manner”.

With “YopEi_i38-z-BIM: YopE1-138 fusion with zebrafish apoptosis inducer BIM” the “apoptosis / cell death induction” value [8] was “showed clear signs of cell death”, the “automated image analysis of Caspase 3 p17 staining near bacteria” value [12] was “induce apoptosis in nearby cells by far more than control bacteria do” and the “cleaved CASP3 (apoptosis) in regions surrounding the bacteria” value [12] was “strong increase in presence of cleaved CASP3; also recorded: induces apoptosis in zebrafish embryos”.

For “murine BAX: YopE1-138 fusion with BH3 domain of murine BAX, codon optimized for Y. enterocolitica”, the “cell death / apoptosis induction” value [1] was “induce massive cell death; also recorded: induces massive apoptosis”, the “cell death / apoptosis induction” value [2] was “induce massive cell death; also recorded: induces massive apoptosis” and the “cell death / apoptosis induction” value [3] was “induce massive cell death; also recorded: induces massive apoptosis”. The “cell death / apoptosis induction” value [4] was “induce massive cell death; also recorded: induces massive apoptosis”.

For “murine tBID: YopE1-138 fusion with murine tBID codon optimized for Y. enterocolitica”, the “cell death / apoptosis induction” value [1] was “triggered cell death; also recorded: induces massive apoptosis”, the “cell death / apoptosis induction” value [2] was “triggered cell death; also recorded: induces massive apoptosis” and the “cell death / apoptosis induction” value [3] was “triggered cell death; also recorded: induces massive apoptosis”. The “cell death / apoptosis induction” value [4] was “triggered cell death; also recorded: induces massive apoptosis”.

B1: SteAi_2o fused murine tBID: murine tBID fused to the 20 N-terminal amino acids of SteA, delivered by S. enterica (protein)
chain: MPYTSVSTYARALSGNKLPHGTGSQASRSFNQGRIEPDSESQEEIIHNIARHLAQIGDEMDHNIQPTLVRQLAAQFMNGSLSEEDKRNCLAKALDEVKTAFPRDMENDKAMLIMTMLLAKKVASHAPSLLRDVFHTTVNFINQNLFSYVRNLVRNEMD
modifications: SteA1-20 - S. enterica codon optimized murine t-BID
notes: murine tBID fused to the 20 N-terminal amino acids of SteA, delivered by S. enterica
With B1 the “apoptosis induction (CASP3 p17 production)” value [6, 13] was “failed to induce apoptosis” and the “apoptosis induction (CASP3 p17 production)” value [6, 14] was “failed to induce apoptosis”.
